# Where “and” joins values, the source holds several entries; their conditions need not be identical. Equal entries are not always repeated. Where two headings read alike, the source gives them in different places.
# What was measured:
# [1] = molecular target: T1, E. coli ADP-Glc PPase (Escherichia coli, UniProt P0A6V1); conditions: cited from earlier work
# T1 construct: made in house; host or cells: E. coli BL21 (DE3)
# [2] = molecular target: T1, E. coli ADP-Glc PPase; assay: ADP-Glc synthesis assay (Pi formation, Malachite Green) with Hill-equation kinetic characterization; assay type: biochemical; conditions: for IC50: read-out: I 0.5 for AMP
# Experimental: Synthesis of ADP-Glc was assayed by following the formation of Pi (after hydrolysis of pyrophosphate by inorganic pyrophosphatase) as previously described. Unless otherwise stated, a 50 µl reaction mixture contained 100 mM HEPES (pH 8.0), 10 mM MgCl2, 1.5 mM ATP, 0.2 mg/ml bovine serum albumin, 0.5 mU/µl yeast inorganic pyrophosphatase, and the given amount of enzyme. Assays were initiated with 1 mM Glc-1P. If mentioned, a given amount of Pyr, Fru-1,6-P2, and/or AMP was also included. After incubation for 10 min at 37°C, addition of Malachite Green reagent terminated the reaction. The complex formed with the released Pi was measured at 630 nm with an ELISA EMax detector (Molecular Devices). Sodium pyrophosphate was used as standard. One unit of enzyme activity was defined as the amount producing of 1 µmol of product in 1 min under the specified conditions.
# Data of enzyme activity were plotted versus effector concentration. Kinetic parameters from the Hill equation such as Hill coefficient (n H), maximal velocity (V max), as well as the activator substrate or inhibitor concentrations giving 50% of the maximal activation (A 0.5), velocity (S 0.5), or inhibition (I 0.5), were acquired by fitting the data with a non-linear least-squares algorithm using the program Origin 7.0 (OriginLab). Parameters are the mean of at least three independent sets of data, reproducible within ±10%. Sample standard deviations of the data were calculated from the Hill equation fitting by using the Levenberg–Marquardt method.
# [3] = system: A. tumefaciens ADP-Glc PPase; design: method as in PMID 9721178; conditions: cited from earlier work
# [4] = 50 µM AMP and 100 µM Fru-1,6-P2 (Figure 5)
# [5] = F. 50 mM Pyr +150 µM Fru-1,6-P2
# T1 sequence (P0A6V1 whole entry): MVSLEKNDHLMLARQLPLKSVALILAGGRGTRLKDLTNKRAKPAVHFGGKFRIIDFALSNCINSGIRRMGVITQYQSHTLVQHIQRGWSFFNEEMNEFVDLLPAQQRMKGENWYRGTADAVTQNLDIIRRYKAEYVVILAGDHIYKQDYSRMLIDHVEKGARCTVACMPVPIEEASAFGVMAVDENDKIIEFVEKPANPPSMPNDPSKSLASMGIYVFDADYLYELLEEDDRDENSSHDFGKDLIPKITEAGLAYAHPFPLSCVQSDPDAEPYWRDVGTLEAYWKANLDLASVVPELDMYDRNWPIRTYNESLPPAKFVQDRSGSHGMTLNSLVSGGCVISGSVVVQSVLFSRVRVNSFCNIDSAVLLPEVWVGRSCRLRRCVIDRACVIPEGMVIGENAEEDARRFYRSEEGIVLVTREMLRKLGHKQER
compound,measurement,setting,value
"O=C(COP(=O)(O)O)[C@@H](O)[C@H](O)[C@H](O)COP(=O)(O)O [Fru-1,6-P2, Fructose-1,6-bisphosphate]","A 0.5 for Fru-1,6-P2",[1],sub-millimolar range
same,increase of enzyme activity,[1],~50 fold
same,improvement of apparent affinity of the enzyme for Pyr,"[2]; 30 µM Fru-1,6-P2 (Figure 1)",8.4 fold
same,V max,"[2]; E. 10 µM Fru-1,6-P2",6.21±0.19 U/mg
same,V max,"[2]; G. 150 µM Fru-1,6-P2",63±4 U/mg
same,V max,"[2]; I. 2 mM Fru-1,6-P2",108±6 U/mg
same,EC50,"[2]; absence of Pyr (Figure 3A), read-out: A 0.5 for Fru-1,6-P2",120 µM
same,EC50,"[2]; as stated in legend of Figure 5, read-out: A 0.5 for Fru-1,6-P2",100 µM
same,decrease of Pyr A 0.5,"[2]; at 50 µM Fru-1,6-P2",5 fold
same,EC50,"[2]; presence of 2.5 mM Pyr (Figure 3A), read-out: A 0.5 for Fru-1,6-P2",70 µM
"CC(=O)C(=O)O [Pyr, pyruvate]",Pyr activation,[3],5 fold
same,EC50,[3]; read-out: A 0.5 for Pyr,130 µM
same,EC50,"[1]; weak activation, read-out: A 0.5 for Pyr",> 10000 µM
same,activation of the partially inhibited enzyme,[2]; [4],4 fold
same,nH of Pyr activation,[2]; [4],1.2
same,EC50,"[2]; 50 µM AMP and 100 µM Fru-1,6-P2 (Figure 5), read-out: A 0.5 for Pyr",2760 µM
same,"absolute activity (reference for relative activity, Figure 4)","[2]; 20 mM Pyr with 100 µM Fru-1,6-P2, control without Pyr 31.2 U/mg",61.8 U/mg
same,decrease of apparent affinity for AMP,"[2]; 20 mM Pyr, 100 µM Fru-1,6-P2",3 fold
same,enzyme more active if Pyr was present (relative activities),"[2]; 20 mM Pyr, 100 µM Fru-1,6-P2, 0.05–0.15 mM AMP range",up to 3 fold
same,increase of affinity for Glc-1P,"[2]; 25 mM Pyr combined with 10 µM Fru-1,6-P2, compared to absence of any effector",4.1 fold
same,lowering of S 0.5 for ATP,"[2]; 25 mM Pyr combined with 10 µM Fru-1,6-P2, vs no effector",6.6 fold
same,lowering of S 0.5 for Glc-1P,[2]; 25 mM Pyr vs no effector,1.7 fold
same,reduction of S 0.5 for ATP,[2]; 25 mM Pyr vs no effector,3.9 fold
same,lowering of S 0.5 for Glc-1P,[2]; 50 mM Pyr vs no effector,2.6 fold
same,reduction of S 0.5 for ATP,[2]; 50 mM Pyr vs no effector,6.2 fold
same,increase of enzyme activity,"[2]; 100 mM Pyr (highest concentration tested), no other effector",3.3 fold
same,V max,[2]; B. 25 mM Pyr,3.93±0.21 U/mg
same,V max,[2]; C. 50 mM Pyr,5.31±0.19 U/mg
same,V max,"[2]; D. 25 mM Pyr +10 µM Fru-1,6-P2",31±2 U/mg
same,V max,[2]; [5],104±5 U/mg
same,A 0.5 for Pyr,"[2]; Figure 2, at increasing concentrations of Fru-1,6-P2",low mM range
same,V max,"[2]; J. 50 mM Pyr +2 mM Fru-1,6-P2",110±5 U/mg
same,increase in V max by Pyr,[2]; Pyr alone,~4 fold and 5 fold
same,nH of Pyr activation,[2]; absence of any other regulatory effector (Figure 1),1.03
same,EC50,"[2]; absence of any other regulatory effector (Figure 1), read-out: A 0.5 for Pyr",25000 µM
same,EC50,"[2]; at 50 µM Fru-1,6-P2, read-out: A 0.5 for Pyr",5000 µM
same,maximal activation by Pyr,"[2]; in presence of 10 µM or 30 µM Fru-1,6-P2 (Figure 1)",~6 fold
same,EC50,"[2]; presence of 1 µM PLP (data not shown), read-out: A 0.5 for Pyr",3700 µM
Nc1ncnc2c1ncn2[C@@H]1O[C@H](COP(=O)(O)O)[C@@H](O)[C@H]1O [AMP],n H of AMP inhibition,"[2]; 100 µM Fru-1,6-P2, absence of Pyr",1.7
same,IC50,"[2]; 100 µM Fru-1,6-P2, absence of Pyr (Figure 4)",30 µM
same,remaining activity at maximum inhibition,"[2]; 100 µM Fru-1,6-P2, both in absence and presence of 20 mM Pyr",around 10%
same,n H of AMP inhibition,"[2]; 100 µM Fru-1,6-P2, presence of 20 mM Pyr",2.4
same,IC50,"[2]; 100 µM Fru-1,6-P2, presence of 20 mM Pyr (Figure 4)",110 µM
Nc1ncnc2c1ncn2[C@@H]1O[C@H](COP(=O)(O)OP(=O)(O)OP(=O)(O)O)[C@@H](O)[C@H]1O [ATP-Mg],ATP-Mg S 0.5,[2]; A. No effector,6.49 ± 0.21 mM
same,ATP-Mg n H,[2]; A. No effector,1.5
same,ATP-Mg S 0.5,[2]; B. 25 mM Pyr,1.67 ± 0.08 mM
same,ATP-Mg n H,[2]; B. 25 mM Pyr,2.5
same,ATP-Mg S 0.5,[2]; C. 50 mM Pyr,1.05 ± 0.06 mM
same,ATP-Mg n H,[2]; C. 50 mM Pyr,2.2
same,ATP-Mg S 0.5,"[2]; D. 25 mM Pyr +10 µM Fru-1,6-P2",0.99 ± 0.07 mM
same,ATP-Mg n H,"[2]; D. 25 mM Pyr +10 µM Fru-1,6-P2",3.6
same,ATP-Mg S 0.5,"[2]; E. 10 µM Fru-1,6-P2",5.02 ± 0.25 mM
same,ATP-Mg n H,"[2]; E. 10 µM Fru-1,6-P2",2.1
same,ATP-Mg S 0.5,[2]; [5],0.37 ± 0.03 mM
same,ATP-Mg n H,[2]; [5],2.4
same,ATP-Mg S 0.5,"[2]; G. 150 µM Fru-1,6-P2",1.31 ± 0.09 mM
same,ATP-Mg n H,"[2]; G. 150 µM Fru-1,6-P2",3.2
same,ATP-Mg S 0.5,"[2]; I. 2 mM Fru-1,6-P2",0.43 ± 0.02 mM
same,ATP-Mg n H,"[2]; I. 2 mM Fru-1,6-P2",2.1
same,ATP-Mg S 0.5,"[2]; J. 50 mM Pyr +2 mM Fru-1,6-P2",0.19 ± 0.02 mM
same,ATP-Mg n H,"[2]; J. 50 mM Pyr +2 mM Fru-1,6-P2",1.4
O=P(O)(O)OC1O[C@H](CO)[C@@H](O)[C@H](O)[C@H]1O (stereo partly drawn) [Glc-1P],Glc-1P S 0.5,[2]; A. No effector,0.95 ± 0.07 mM
same,Glc-1P n H,[2]; A. No effector,1.1
same,Glc-1P S 0.5,[2]; B. 25 mM Pyr,0.57 ± 0.05 mM
same,Glc-1P n H,[2]; B. 25 mM Pyr,1.0
same,Glc-1P S 0.5,[2]; C. 50 mM Pyr,0.37 ± 0.02 mM
same,Glc-1P n H,[2]; C. 50 mM Pyr,0.9
same,Glc-1P S 0.5,"[2]; D. 25 mM Pyr +10 µM Fru-1,6-P2",0.23 ± 0.02 mM
same,Glc-1P n H,"[2]; D. 25 mM Pyr +10 µM Fru-1,6-P2",1.3
same,Glc-1P S 0.5,"[2]; E. 10 µM Fru-1,6-P2",0.77 ± 0.04 mM
same,Glc-1P n H,"[2]; E. 10 µM Fru-1,6-P2",1.0
same,Glc-1P S 0.5,[2]; [5],0.09 ± 0.01 mM
same,Glc-1P n H,[2]; [5],1.1
same,Glc-1P S 0.5,"[2]; G. 150 µM Fru-1,6-P2",0.12 ± 0.01 mM
same,Glc-1P n H,"[2]; G. 150 µM Fru-1,6-P2",1.2
same,Glc-1P S 0.5,"[2]; I. 2 mM Fru-1,6-P2",0.09 ± 0.01 mM
same,Glc-1P n H,"[2]; I. 2 mM Fru-1,6-P2",1.3
same,Glc-1P S 0.5,"[2]; J. 50 mM Pyr +2 mM Fru-1,6-P2",0.11 ± 0.01 mM
same,Glc-1P n H,"[2]; J. 50 mM Pyr +2 mM Fru-1,6-P2",1.0
"Cc1ncc(COP(=O)(O)O)c(C=O)c1O [PLP, pyridoxal-5′-phosphate]",EC50,"[2]; absence of Pyr (Figure 3B), read-out: A 0.5 for PLP",2.7 µM
same,EC50,"[2]; presence of 10 mM Pyr (Figure 3B), read-out: A 0.5 for PLP",1 µM

# Reference: article PMC4125136, “A Novel Dual Allosteric Activation Mechanism of Escherichia coli ADP-Glucose Pyrophosphorylase: The Role of Pyruvate” (PLoS ONE, 2014)
